Laboratory results published in US9763445B2, “Safened herbicidal compositions comprising a pyridine carboxylic acid herbicide” (Dow AgroSciences, LLC, priority 2014, dated 2017).

Assays:
pigweed (AMARE) = experiment: Postemergence greenhouse trial, % visual injury on pigweed; assay type: in vivo, Amaranthus retroflexus; details: for % visual injury, observed (Ob): AMARE
How it was run: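 Injury was scored visually (0 = none, 100 = complete kill) 20–22 d after track-sprayer application at 187 L/ha, compared with solvent-sprayed controls. Test plants at the 2–3 true leaf stage; herbicide (g ae/ha) plus cloquintocet-mexyl safener (g ai/ha) in crop-oil-containing spray; expected mixture response by Colby.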

thistle (CIRAR) = experiment: Postemergence greenhouse trial, % visual injury on thistle; assay type: in vivo, Cirsium arvense; details: for % visual injury, observed (Ob): CIRAR
How it was run: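 Visual injury, 0 (none) to 100 (complete kill), rated 20-22 d after overhead track-sprayer application at 187 L/ha; Colby's equation gave expected mixture responses. Herbicide (g ae/ha) and cloquintocet-mexyl safener (g ai/ha) diluted in aqueous 1.5% v/v Agri-dex, applied to weeds at 2–3 true leaves.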

[1] = tested on: purple deadnettle (LAMPU); experiment: Postemergence greenhouse trial, % visual injury on purple deadnettle; assay type: in vivo, Lamium purpureum; details: LAMPU
Description: Seeds of the desired test plant species were planted in Sun Gro MetroMix® 306 planting mixture, which typically has a pH of 6.0 to 6.8 and an organic matter content of about 30 percent, in plastic pots with a surface area of 103.2 square centimeters (cm^2). When required to ensure good germination and healthy plants, a fungicide treatment and/or other chemical or physical treatment was applied. The plants were grown for 7-36 days (d) in a greenhouse with an approximate 14-hour (h) photoperiod which was maintained at about 23° C. during the day and 22° C. during the night. Nutrients and water were added on a regular basis and supplemental lighting was provided with overhead metal halide 1000-Watt lamps as necessary. The plants were employed for testing when they reached the second or third true leaf stage.
Weighed amounts of technical material were dissolved in a volume of 97:3 volume per volume (v/v) acetone/dimethyl sulfoxide (DMSO) to stock solutions. […] The concentrated stock solutions were diluted with an aqueous mixture of 1.5% v/v of Agri-dex crop oil concentrate to provide the appropriate application rates. Compound requirements are based upon a 12 milliliter (mL) application volume at a rate of 187 liters per hectare (L/ha). Stocks solutions of the safeners were prepared following the same procedure. Spray solutions of the safeners and experimental compound mixtures were prepared by adding the stock solutions to the appropriate amount of dilution solution to form a 12 mL spray solution in two-way combinations. Formulated compounds were applied to the plant material with an overhead Mandel track sprayer equipped with 8002E nozzles calibrated to deliver 187 L/ha over an application area of 0.503 square meters (m^2) at a spray height of 18 inches (43 centimeters (cm)) above average plant canopy. Control plants were sprayed in the same manner with the solvent blank. All herbicide application (component a) rates are in g ae/ha and all safener (component b) rates are in g ai/ha.
The treated plants and control plants were placed in a greenhouse as described above and watered by sub-irrigation to prevent wash-off of the test compounds. After 20-22 d, the condition of the test plants as compared with that of the control plants was determined visually and scored on a scale of 0 to 100 percent where 0 corresponds to no injury and 100 corresponds to complete kill. […] Colby's equation was used to determine the herbicidal effects expected from the mixtures. […]

common poppy (PAPRH) = experiment: Postemergence greenhouse trial, % visual injury on common poppy; assay type: in vivo, Papaver rhoeas; details: PAPRH
How it was run: (§1)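 Herbicide rates g ae/ha, safener (cloquintocet-mexyl) rates g ai/ha; spray carrier 1.5% v/v crop oil concentrate, 187 L/ha, 2nd–3rd leaf stage. Rating: visual % injury at 20-22 d.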

Russian thistle (SASKR) = experiment: Postemergence greenhouse trial, % visual injury on Russian thistle; assay type: in vivo, Salsola kali; details: SASKR
[2] = tested on: bird's-eye speedwell (VERPE); experiment: Postemergence greenhouse trial, % visual injury on bird's-eye speedwell; assay type: in vivo, Veronica persica; details: VERPE
How it was run: as §1

[3] = compound 2 4.380 + CQC-m 0 g/ha

SMILES: Nc1c(F)c(-c2ccc3cc[nH]c3c2F)nc(C(=O)OCc2ccccc2)c1Cl [compound 2]
- % visual injury, observed (Ob) (pigweed (AMARE); [3]): 80%
- % visual injury, observed (Ob) (pigweed (AMARE); compound 2 8.75 + CQC-m 0 g/ha): 95%
- % visual injury, observed (Ob) (pigweed (AMARE); compound 2 17.5 + CQC-m 0 g/ha): 100%
- pest or weed control at 35 g/ha (pigweed (AMARE); Amaranthus retroflexus, post-emergence, alone, 35 g/ha, read-out: % visual injury, Ob): 100%
- % visual injury, observed (Ob) (thistle (CIRAR); [3]): 35%
- % visual injury, observed (Ob) (thistle (CIRAR); compound 2 8.75 + CQC-m 0 g/ha): 63%
- % visual injury, observed (Ob) (thistle (CIRAR); compound 2 17.5 + CQC-m 0 g/ha): 80%
- % visual injury, observed (Ob) (thistle (CIRAR); compound 2 35 + CQC-m 0 g/ha): 99%
- % visual injury, observed (Ob) (thistle (CIRAR); compound 2 70 + CQC-m 0 g/ha): 99%
- pest or weed control at 35 g/ha (thistle (CIRAR); Cirsium arvense, post-emergence, alone, 35 g/ha, read-out: % visual injury, Ob): 70%
- % visual injury, observed (Ob) [1, 3]: 85%
- % visual injury, observed (Ob) ([1]; compound 2 8.75 + CQC-m 0 g/ha): 93%
- % visual injury, observed (Ob) ([1]; compound 2 17.5 + CQC-m 0 g/ha): 95%
- % visual injury, observed (Ob) ([1]; compound 2 35 + CQC-m 0 g/ha): 100%
- % visual injury, observed (Ob) ([1]; compound 2 70 + CQC-m 0 g/ha): 100%
- % visual injury, observed (Ob) (common poppy (PAPRH); [3]): 93%
- % visual injury, observed (Ob) (common poppy (PAPRH); compound 2 8.75 + CQC-m 0 g/ha): 100%
- % visual injury, observed (Ob) (common poppy (PAPRH); compound 2 17.5 + CQC-m 0 g/ha): 100%
- % visual injury, observed (Ob) (common poppy (PAPRH); compound 2 35 + CQC-m 0 g/ha): 100%
- % visual injury, observed (Ob) (common poppy (PAPRH); compound 2 70 + CQC-m 0 g/ha): 100%
- % visual injury, observed (Ob) (Russian thistle (SASKR); [3]): 75%
- % visual injury, observed (Ob) (Russian thistle (SASKR); compound 2 8.75 + CQC-m 0 g/ha): 85%
- % visual injury, observed (Ob) (Russian thistle (SASKR); compound 2 17.5 + CQC-m 0 g/ha): 89%
- % visual injury, observed (Ob) (Russian thistle (SASKR); compound 2 35 + CQC-m 0 g/ha): 92%
- % visual injury, observed (Ob) (Russian thistle (SASKR); compound 2 70 + CQC-m 0 g/ha): 92%
- % visual injury, observed (Ob) [2, 3]: 75%
- % visual injury, observed (Ob) ([2]; compound 2 8.75 + CQC-m 0 g/ha): 95%
- % visual injury, observed (Ob) ([2]; compound 2 17.5 + CQC-m 0 g/ha): 100%
- % visual injury, observed (Ob) ([2]; compound 2 35 + CQC-m 0 g/ha): 100%
- % visual injury, observed (Ob) ([2]; compound 2 70 + CQC-m 0 g/ha): 100%
